{
  "source": "ChEMBL document CHEMBL3046079",
  "about": "“Synthesis, herbicidal activity, and mode of action of IR 5790” (J Agric Food Chem, 2001)",
  "key": {"Alopecurus myosuroides": {"test_system": "Alopecurus myosuroides", "test": "Post-emergence herbicidal activity against Alopecurus myosuroides assessed as injury at 150 g/ha applied at 15 days post-sowing measured after 15 days relative to control", "format": "functional"}, "Avena fatua": {"test_system": "Avena fatua", "test": "Post-emergence herbicidal activity against Avena fatua assessed as injury at 150 g/ha applied at 15 days post-sowing measured after 15 days relative to control", "format": "functional"}, "Persicaria maculosa [1]": {"test_system": "Persicaria maculosa", "test": "Post-emergence herbicidal activity against Persicaria maculosa assessed as injury at 50 g/ha applied at 15 days post-sowing measured after 15 days relative to control", "format": "functional"}, "Calystegia sepium [2]": {"test_system": "Calystegia sepium", "test": "Post-emergence herbicidal activity against Calystegia sepium assessed as injury at 50 g/ha applied at 15 days post-sowing measured after 15 days relative to control", "format": "functional"}, "Xanthium strumarium [3]": {"test_system": "Xanthium strumarium", "test": "Pre-emergence herbicidal activity against Xanthium strumarium (cocklebur) assessed as injury at 50 g/ha applied at 24 hr post-sowing measured after 28 days relative to control", "format": "functional"}, "Setaria viridis": {"test_system": "Setaria viridis", "test": "Post-emergence herbicidal activity against Setaria viridis (green foxtail) assessed as injury at 150 g/ha applied at 15 days post-sowing measured after 15 days relative to control", "format": "functional"}, "Portulaca oleracea [4]": {"test_system": "Portulaca oleracea", "test": "Post-emergence herbicidal activity against Portulaca oleracea assessed as injury at 50 g/ha applied at 15 days post-sowing measured after 15 days relative to control", "format": "functional"}, "Capsella bursa-pastoris": {"test_system": "Capsella bursa-pastoris", "test": "Post-emergence herbicidal activity against Capsella bursa-pastoris assessed as injury at 150 g/ha applied at 15 days post-sowing measured after 15 days relative to control", "format": "functional"}, "Amaranthus retroflexus [5]": {"test_system": "Amaranthus retroflexus", "test": "Pre-emergence herbicidal activity against Amaranthus retroflexus assessed as injury at 50 g/ha applied at 24 hr post-sowing measured after 28 days relative to control", "format": "functional"}, "Chenopodium album": {"test_system": "Chenopodium album", "test": "Post-emergence herbicidal activity against Chenopodium album assessed as injury at 15 g/ha applied at 15 days post-sowing measured after 15 days relative to control", "format": "functional"}, "Papaver rhoeas [6]": {"test_system": "Papaver rhoeas", "test": "Post-emergence herbicidal activity against Papaver rhoeas assessed as injury at 50 g/ha applied at 15 days post-sowing measured after 15 days relative to control", "format": "functional"}, "Digitaria sanguinalis": {"test_system": "Digitaria sanguinalis", "test": "Post-emergence herbicidal activity against Digitaria sanguinalis (hairy crabgrass) assessed as injury at 50 g/ha applied at 15 days post-sowing measured after 15 days relative to control", "format": "functional"}, "Calystegia sepium [7]": {"test_system": "Calystegia sepium", "test": "Post-emergence herbicidal activity against Calystegia sepium assessed as injury at 150 g/ha applied at 15 days post-sowing measured after 15 days relative to control", "format": "functional"}, "Echinochloa crus-galli": {"test_system": "Echinochloa crus-galli", "test": "Post-emergence herbicidal activity against Echinochloa crus-galli (barnyard grass) assessed as injury at 15 g/ha applied at 15 days post-sowing measured after 15 days relative to control", "format": "functional"}, "Brassica napus": {"test_system": "Brassica napus", "test": "Phytotoxicity against Brassica napus (oilseed rape) assessed as injury at 150 g/ha applied as pre-emergent treatment at 24 hr post-sowing measured after 28 days relative to control", "format": "organism-based", "conditions": "in vivo, other, 672 h"}, "Oryza sativa": {"test_system": "Oryza sativa", "test": "Phytotoxicity against Oryza sativa (rice) assessed as injury at 150 g/ha applied as post-emergent treatment at 15 days post-sowing measured after 15 days relative to control", "format": "organism-based", "conditions": "in vivo, other, 360 h"}, "Triticum aestivum": {"test_system": "Triticum aestivum", "test": "Phytotoxicity against Triticum aestivum (wheat) assessed as injury at 5 g/ha applied as post-emergent treatment at 15 days post-sowing measured after 15 days relative to control", "format": "organism-based", "conditions": "in vivo, other, 360 h"}, "Veronica persica [8]": {"test_system": "Veronica persica", "test": "Post-emergence herbicidal activity against Veronica persica assessed as injury at 50 g/ha applied at 15 days post-sowing measured after 15 days relative to control", "format": "functional"}, "Papaver rhoeas [9]": {"test_system": "Papaver rhoeas", "test": "Pre-emergence herbicidal activity against Papaver rhoeas assessed as injury at 50 g/ha applied at 24 hr post-sowing measured after 28 days relative to control", "format": "functional"}, "Sida spinosa [10]": {"test_system": "Sida spinosa", "test": "Post-emergence herbicidal activity against Sida spinosa assessed as injury at 150 g/ha applied at 15 days post-sowing measured after 15 days relative to control", "format": "functional"}, "Amaranthus retroflexus [11]": {"test_system": "Amaranthus retroflexus", "test": "Pre-emergence herbicidal activity against Amaranthus retroflexus assessed as injury at 150 g/ha applied at 24 hr post-sowing measured after 28 days relative to control", "format": "functional"}, "Persicaria maculosa [12]": {"test_system": "Persicaria maculosa", "test": "Pre-emergence herbicidal activity against Persicaria maculosa assessed as injury at 50 g/ha applied at 24 hr post-sowing measured after 28 days relative to control", "format": "functional"}, "Beta vulgaris": {"test_system": "Beta vulgaris", "test": "Phytotoxicity against Beta vulgaris assessed as injury at 150 g/ha applied as post-emergent treatment at 15 days post-sowing measured after 15 days relative to control", "format": "organism-based", "conditions": "in vivo, other, 360 h"}, "Persicaria maculosa [13]": {"test_system": "Persicaria maculosa", "test": "Post-emergence herbicidal activity against Persicaria maculosa assessed as injury at 150 g/ha applied at 15 days post-sowing measured after 15 days relative to control", "format": "functional"}, "Glycine max": {"test_system": "Glycine max", "test": "Phytotoxicity against Glycine max (soybean) assessed as injury at 50 g/ha applied as post-emergent treatment at 15 days post-sowing measured after 15 days relative to control", "format": "organism-based", "conditions": "in vivo, other, 360 h"}, "Phalaris arundinacea": {"test_system": "Phalaris arundinacea", "test": "Pre-emergence herbicidal activity against Phalaris arundinacea assessed as injury at 50 g/ha applied at 24 hr post-sowing measured after 28 days relative to control", "format": "functional"}, "Ammi majus": {"test_system": "Ammi majus", "test": "Post-emergence herbicidal activity against Amni maius assessed as injury at 15 g/ha applied at 15 days post-sowing measured after 15 days relative to control", "format": "functional"}, "Cucumis sativus": {"test_system": "Cucumis sativus", "test": "Induction of photobleaching in Cucumis sativus (cucumber) cotyledon disc at 1 to 100 uM incubated for 20 hr in dark followed by 8 hr in presence of light", "format": "functional"}, "Veronica persica [14]": {"test_system": "Veronica persica", "test": "Pre-emergence herbicidal activity against Veronica persica assessed as injury at 150 g/ha applied at 24 hr post-sowing measured after 28 days relative to control", "format": "functional"}, "Sida spinosa [15]": {"test_system": "Sida spinosa", "test": "Pre-emergence herbicidal activity against Sida spinosa assessed as injury at 50 g/ha applied at 24 hr post-sowing measured after 28 days relative to control", "format": "functional"}, "[16]": {"test": "Aqueous solubility of the compound", "format": "physicochemical", "conditions": "water"}, "Xanthium strumarium [17]": {"test_system": "Xanthium strumarium", "test": "Post-emergence herbicidal activity against Xanthium strumarium (cocklebur) assessed as injury at 50 g/ha applied at 15 days post-sowing measured after 15 days relative to control", "format": "functional"}, "Matricaria chamomilla": {"test_system": "Matricaria chamomilla", "test": "Pre-emergence herbicidal activity against Matricaria chamomilla assessed as injury at 50 g/ha applied at 24 hr post-sowing measured after 28 days relative to control", "format": "functional"}, "Xanthium strumarium [18]": {"test_system": "Xanthium strumarium", "test": "Pre-emergence herbicidal activity against Xanthium strumarium (cocklebur) assessed as injury at 150 g/ha applied at 24 hr post-sowing measured after 28 days relative to control", "format": "functional"}, "Papaver rhoeas [19]": {"test_system": "Papaver rhoeas", "test": "Post-emergence herbicidal activity against Papaver rhoeas assessed as injury at 150 g/ha applied at 15 days post-sowing measured after 15 days relative to control", "format": "functional"}, "Portulaca oleracea [20]": {"test_system": "Portulaca oleracea", "test": "Post-emergence herbicidal activity against Portulaca oleracea assessed as injury at 15 g/ha applied at 15 days post-sowing measured after 15 days relative to control", "format": "functional"}, "Ipomoea purpurea": {"test_system": "Ipomoea purpurea", "test": "Post-emergence herbicidal activity against Ipomoea purpurea (common morning-glory) assessed as injury at 15 g/ha applied at 15 days post-sowing measured after 15 days relative to control", "format": "functional"}, "Zea mays": {"test_system": "Zea mays", "test": "Phytotoxicity against Zea mays (maize) assessed as injury at 150 g/ha applied as pre-emergent treatment at 24 hr post-sowing measured after 28 days relative to control", "format": "organism-based", "conditions": "in vivo, other, 672 h"}, "Sorghum bicolor": {"test_system": "Sorghum bicolor", "test": "Pre-emergence herbicidal activity against Sorghum bicolor assessed as injury at 50 g/ha applied at 24 hr post-sowing measured after 28 days relative to control", "format": "functional"}},
  "note": "The source made the active and inactive calls. The rule behind the calls is not given here.",
  "data": [
    {"smiles": "C#CCOc1cc(-n2nc(C(C)(C)C)sc2=O)c(Cl)cc1Cl", "values": [
      {"measurement": "Activity", "setting": "Alopecurus myosuroides", "value": 70, "unit": "%"},
      {"measurement": "Activity", "setting": "Avena fatua", "value": 30, "unit": "%"},
      {"measurement": "Activity", "setting": "Persicaria maculosa [1]", "value": 90, "unit": "%"},
      {"measurement": "Activity", "setting": "Calystegia sepium [2]", "value": 70, "unit": "%"},
      {"measurement": "Activity", "setting": "Xanthium strumarium [3]", "value": 0, "unit": "%"},
      {"measurement": "Activity", "setting": "Setaria viridis", "value": 70, "unit": "%"},
      {"measurement": "Activity", "setting": "Portulaca oleracea [4]", "value": 90, "unit": "%"},
      {"measurement": "Activity", "setting": "Capsella bursa-pastoris", "value": 50, "unit": "%"},
      {"measurement": "Activity", "setting": "Amaranthus retroflexus [5]", "value": 50, "unit": "%"},
      {"measurement": "Activity", "setting": "Chenopodium album", "value": 70, "unit": "%"},
      {"measurement": "Activity", "setting": "Papaver rhoeas [6]", "value": 0, "unit": "%"},
      {"measurement": "Activity", "setting": "Digitaria sanguinalis", "value": 50, "unit": "%"},
      {"measurement": "Activity", "setting": "Calystegia sepium [7]", "value": 90, "unit": "%"},
      {"measurement": "Activity", "setting": "Echinochloa crus-galli", "value": 0, "unit": "%"},
      {"measurement": "Activity", "setting": "Brassica napus", "value": 0, "unit": "%"},
      {"measurement": "Activity", "setting": "Oryza sativa", "value": 0, "unit": "%"},
      {"measurement": "Activity", "setting": "Triticum aestivum", "value": 0, "unit": "%"},
      {"measurement": "Activity", "setting": "Veronica persica [8]", "value": 0, "unit": "%"},
      {"measurement": "Activity", "setting": "Papaver rhoeas [9]", "value": 70, "unit": "%"},
      {"measurement": "Activity", "setting": "Sida spinosa [10]", "value": 70, "unit": "%"},
      {"measurement": "Activity", "setting": "Amaranthus retroflexus [11]", "value": 90, "unit": "%"},
      {"measurement": "Activity", "setting": "Persicaria maculosa [12]", "value": 0, "unit": "%"},
      {"measurement": "Activity", "setting": "Beta vulgaris", "value": 90, "unit": "%"},
      {"measurement": "Activity", "setting": "Persicaria maculosa [13]", "value": 90, "unit": "%"},
      {"measurement": "Activity", "setting": "Glycine max", "value": 10, "unit": "%"},
      {"measurement": "Activity", "setting": "Phalaris arundinacea", "value": 0, "unit": "%"},
      {"measurement": "Activity", "setting": "Ammi majus", "value": 0, "unit": "%"},
      {"measurement": "Activity", "setting": "Cucumis sativus", "value": "inactive"},
      {"measurement": "Activity", "setting": "Veronica persica [14]", "value": 50, "unit": "%"},
      {"measurement": "Activity", "setting": "Sida spinosa [15]", "value": 0, "unit": "%"},
      {"measurement": "solubility", "setting": "[16]", "value": 1.1, "unit": "µg/mL"},
      {"measurement": "Activity", "setting": "Xanthium strumarium [17]", "value": 10, "unit": "%"},
      {"measurement": "Activity", "setting": "Matricaria chamomilla", "value": 0, "unit": "%"},
      {"measurement": "Activity", "setting": "Xanthium strumarium [18]", "value": 0, "unit": "%"},
      {"measurement": "Activity", "setting": "Papaver rhoeas [19]", "value": 30, "unit": "%"},
      {"measurement": "Activity", "setting": "Portulaca oleracea [20]", "value": 70, "unit": "%"},
      {"measurement": "Activity", "setting": "Ipomoea purpurea", "value": 90, "unit": "%"},
      {"measurement": "Activity", "setting": "Zea mays", "value": 0, "unit": "%"},
      {"measurement": "Activity", "setting": "Sorghum bicolor", "value": 0, "unit": "%"}
    ]}
  ]
}
